Data taken from publication PMC8840173 (Molecules, 2022).
≈ marks a conversion by molar mass, not a printed value. Like-named read-outs stand apart in the source and are kept apart here.

Assays:
[1] = molecular target: butyryl cholinesterase; set-up: method as in PMID 23046385; settings: read-out: inhibitory activity against butyryl cholinesterase IC50; cited from earlier work
[2] = physchem; format: physicochemical; settings: for light transmittance of the diluted solution: 1 h, 1.82 mM
Experimental: All the metabolites obtained during this study were more polar than their parent compound (−)-α-bisabolol (1) and proposed to have higher aqueous solubility. In order to confirm the improvement in solubility, a modified kinetic solubility test was carried out using the stock solutions of compounds 1–12 (20 mM in dimethyl sulfoxide). […] This was confirmed by measuring the light transmittance of the diluted solutions.
The solubility of compounds 1–12 was evaluated by the modified kinetic solubility assay. Compounds 1–12 were dissolved in dimethyl sulfoxide (DMSO) to yield 20 mM stock solutions, then 10 μL of the compound stock solution was diluted with 100 μL water. After all the solutions were prepared, the vials were placed under room temperature and allowed to mix for 1 h. After this, the light transmittance was measured at a scan width of 5 nm over the range of 390 to 650 nm using a SpectraMax 190 Microplate reader (Molecular Devices, Sunnyvale, CA, USA). After centrifugation, the supernatant was analyzed by HPLC under 200 nm using a Zorbax SB-CN (250 × 10 mm) column with 60% methanol as mobile phase at a flow rate of 2 mL/min.

[3] = system: healthy and infected hamsters; settings: cited from earlier work
[4] = system: promastigotes; set-up: method as in PMID 25448354, PMID 27616730; settings: in vitro, cited from earlier work
[5] = system: LPS-induced production of NO and PGE2; set-up: method as in PMID 21771629; settings: dose-dependent; cited from earlier work
[6] = set-up: method as in PMID 24894548; settings: cited from earlier work
[7] = set-up: method as in earlier work; settings: antioxidant activity; cited from earlier work
[8] = system: lung cancer cell line A549; settings: cited from earlier work

For `C=C1CC[C@H]2O[C@]2(C)CC[C@@H]2[C@@H]1CC2(C)C` [caryophyllene oxide], the IC50 [1] is listed as 208 µM.

For `CC1=CC[C@@](O)([C@]2(C)CC[C@@H](C(C)(C)O)O2)CC1` [Compound 5, (1R,7S,10S)-1-hydroxybisabolol oxide B], the “light transmittance of the diluted solution” value (“light transmittance” below) [2] was 90%.

In the case of `CC(C)=CCC[C@](C)(O)[C@H]1CC[C@](C)(O)[C@H](O)C1` [Compound 8, (1S,3R,4S,7S)-3,4-dihydroxy-α-bisabolol], the “light transmittance” value [2] is reported as 90%.

For `CC(C)=CCC[C@](C)(O)[C@@H]1CC=C(C)CC1` [Compound 1, (−)-α-Bisabolol], the “toxicity or side effects after administration” value [3] is listed as “did not lead to the appearance of toxicity or side effects”, the “antileishmanial activity IC50” value ([4]; 24 h) is listed as 8.07 µg/mL and the “antileishmanial activity IC50” value ([4]; 48 h) is listed as 4.26 µg/mL. The “effect on LPS-induced production of NO and PGE2” value [5] was “significantly reduce”, the “appearance after dilution (turbidity / precipitates)” value ([2]; 10 μL of 20 mM DMSO stock diluted with 100 μL water) was “White turbidity” and the “light transmittance” value [2] was “less than 50%”. For the same molecule, the solubility at 1 h ([2]; aqueous with cosolvent or surfactant or cyclodextrin, kinetic from dmso stock) was 260 µM (≈ 57.8 µg/mL), the “effect on TPA-induced ear thickness and histopathological damage in the ear tissue” value [6] was “significantly inhibited” and the “IC50 for DPPH radical scavenging ability” value [7] was 43880 µg/mL.

In the case of 14-hydroxymethyl caryophyllene oxide, the IC50 [1] is given as 10.9 µM.

With `CC(C)=CCC[C@](C)(O)[C@@H]1CC=C(C)[C@H](O)C1` [Compound 2, (1R,5R,7S)-5-hydroxy-α-bisabolol] the “light transmittance” value [2] was 90%.

For `CC1=CC[C@@H]([C@]2(C)CC[C@H](O)C(C)(C)O2)CC1` [α-Bisabolol oxide A], the “IC50 for DPPH radical scavenging ability” value [7] is given as 1500 µg/mL.

With `CC(C)=CCC[C@](C)(O)[C@@H]1CC=C(CO)CC1` [Compound 11, 15-hydroxy-α-bisabolol] the “light transmittance” value [2] was 90%.

For `C=C(CO)C1CCC2=CC(=O)CC(C)C2(C)C1` (centres unmarked) [13-hydroxynootkatone], the “cytotoxic activity IC50” value [8] is given as 36 µg/mL.
